pEC50, pKd: −log10 of the molar value.
What was measured:
[1] = target: Kelch domain of human KEAP1 (321-624 aa) (Homo sapiens (Human), UniProt Q14145); test: KEAP1 KELCH ThermoFluor binding assay; conditions: KEAP Kelch […], 1,8-ANS, pH 7.0, average of results obtained, read-out: Tf Kd;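 also: Ligand-induced melting temperature shift of E. coli-expressed KEAP1 Kelch protein, Kd estimated from concentration-response curves of ΔTm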
[2] = system: Glo-Response ARE-luc2P HEK293 cell line; test: ARE luciferase reporter cell-based assay; conditions: Homo sapiens, HEK293, 24 h, average of results obtained;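 also: luciferase signal tracks Nrf2 activation of the ARE once compounds disrupt KEAP1-Nrf2 binding, read with One-Glo reagent, DMSO serving as low control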

Chain of Kelch domain of human KEAP1 (321-624 aa) (Q14145 321-624): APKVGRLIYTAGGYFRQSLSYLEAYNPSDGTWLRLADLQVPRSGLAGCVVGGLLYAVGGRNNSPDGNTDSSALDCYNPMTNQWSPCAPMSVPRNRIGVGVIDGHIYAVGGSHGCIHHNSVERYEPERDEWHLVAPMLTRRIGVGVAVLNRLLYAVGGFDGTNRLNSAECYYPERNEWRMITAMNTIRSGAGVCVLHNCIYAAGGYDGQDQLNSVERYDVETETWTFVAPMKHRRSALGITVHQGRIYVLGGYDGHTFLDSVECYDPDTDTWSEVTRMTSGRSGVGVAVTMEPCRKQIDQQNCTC

SMILES	pKd [1]	pEC50 [2]
Cc1ccc(C(CC(=O)O)c2ccn3c(C(F)(F)F)nnc3c2C)nc1CN1CC2CCCCN2c2ncc(Cl)cc2S1(=O)=O (centres unmarked) [Example 518, 3-(6-((3-Chloro-5,5-dioxido-7,7a,8,9,10,11-hexahydro-6H-dipyrido[2,1-d:2′,3′-f][1,2,5]thiadiazepin-6-yl)methyl)-5-methylpyridin-2-yl)-3-(8-methyl-3-(trifluoromethyl)-[1,2,4]triazolo[4,3-a]pyridin-7-yl)propanoic Acid]	> 9.00	8.46
CC[C@@H]1CN(Cc2cc([C@@H](CC(=O)O)c3ccn4c(C(F)(F)F)nnc4c3C)ccc2C)S(=O)(=O)c2cccnc2O1 (single isomer, unassigned) [Example 190, (*R)-3-(3-(((R)-4-Ethyl-1,1-dioxido-3,4-dihydro-2H-pyrido[2,3-b][1,4,5]oxathiazepin-2-yl)methyl)-4-methylphenyl)-3-(8-methyl-3-(trifluoromethyl)-[1,2,4]triazolo[4,3-a]pyridin-7-yl)propanoic Acid]	> 9.00	7.24
Cc1cnc2c(c1)S(=O)(=O)N(Cc1cc(C(c3ccn4c(C5CC5)nnc4c3C)C(C)(C)C(=O)O)ccc1C)CC1(CC1)O2 (racemic) [Example 391, (R/S)-3-(3-Cyclopropyl-8-methyl-[1,2,4]triazolo[4,3-a]pyridin-7-yl)-2,2-dimethyl-3-(4-methyl-3-((8′-methyl-1′,1′-dioxidospiro[cyclopropane-1,4′-pyrido[2,3-b][1,4,5]oxathiazepin]-2′(3′H)-yl)methyl)phenyl)propanoic Acid]	> 9.00	7.57
Cc1cnc([C@H](c2ccn3c(C(F)F)nnc3c2C)C(C)(C)C(=O)O)cc1CN1CC2(CCOCC2)Oc2nc(OCCN3CCCC3)c(C)cc2S1(=O)=O (single isomer, unassigned) [Example 639, (*R)-3-(3-(Difluoromethyl)-8-methyl-[1,2,4]triazolo[4,3-a]pyridin-7-yl)-2,2-dimethyl-3-(5-methyl-4-((8′-methyl-1′,1′-dioxido-7′-(2-(pyrrolidin-1-yl)ethoxy)-2,3,5,6-tetrahydrospiro[pyran-4,4′-pyrido[2,3-b][1,4,5]oxathiazepin]-2′(3′H)-yl)methyl)pyridin-2-yl)propanoic Acid]	5.74	5.29
Cc1ccc([C@H](c2ccn3c(C(F)(F)F)nnc3c2C)C(C)(C)C(=O)O)cc1CN1CC2(CCOCC2)Oc2nc(N[C@@H](C)CN3CCCC3)c(C)cc2S1(=O)=O (single isomer, unassigned) [Example 367, (*R)-2,2-Dimethyl-3-(4-methyl-3-((8′-methyl-1′,1′-dioxido-7′-(((S)-1-(pyrrolidine-1-yl)propan-2-yl)amino)-2,3,5,6-tetrahydrospiro[pyran-4,4′-pyrido[2,3-b][1,4,5]oxathiazepin]-2′(3′H)-yl)methyl)phenyl)-3-(8-methyl-3-(trifluoromethyl)-[1,2,4]triazolo[4,3-a]pyridine-7-yl)propanoic Acid]	> 9.00	7.10
Cc1cnc2c(c1)S(=O)(=O)N(Cc1cc([C@H](c3ccn4c(C5CC5)nnc4c3C)C(C)(C)C(=O)O)ccc1C)CC1(CC1)O2 (single isomer, unassigned) [Example 393, (*R)-3-(3-Cyclopropyl-8-methyl-[1,2,4]triazolo[4,3-a]pyridin-7-yl)-2,2-dimethyl-3-(4-methyl-3-((8′-methyl-1′,1′-dioxidospiro[cyclopropane-1,4′-pyrido[2,3-b][1,4,5]oxathiazepin]-2′(3′H)-yl)methyl)phenyl)propanoic Acid]	5.68	5.32
Cc1ccc([C@@H](CC(=O)O)c2ccn3c(C(F)F)nnc3c2C)cc1CN1C[C@H]2CCCCN2c2ncc(C#N)cc2S1(=O)=O (single isomer, unassigned) [Example 30, (*R)-3-(3-(((*R)-3-Cyano-5,5-dioxido-7,7a,8,9,10,11-hexahydro-6H-dipyrido[2,1-d:2′,3′-f][1,2,5]thiadiazepin-6-yl)methyl)-4-methylphenyl)-3-(3-(difluoromethyl)-8-methyl-[1,2,4]triazolo[4,3-a]pyridin-7-yl)propanoic Acid]	> 9.00	7.13
